Tests used:
Plasmodium falciparum [1] = assay: Antimalarial activity after 48 hrs against chloroquine-resistant Plasmodium falciparum W2 by [3H]hypoxanthine uptake; type: functional, organism-based
Plasmodium falciparum [2] = assay: Antimalarial activity after 48 hrs against atovaquone-resistant Plasmodium falciparum FCR3 by [3H]hypoxanthine uptake; type: functional, organism-based

Row | SMILES | IC50 (Plasmodium falciparum [1]) [µM] | IC50 (Plasmodium falciparum [2]) [µM]
1 | CCn1cc/c(=N\c2cccc(CCc3ccc(C(F)(F)F)cc3)c2)c(Cl)c1 | 1.6 | 1.87
2 | CC[N+](C)(CC)Cc1cc(/N=c2\ccn(C)cc2S(=O)(=O)N(C)C)ccc1OC | > 50 | > 10
3 | CCn1cc/c(=N\c2ccc(CCc3ccccc3)cc2)c(Cl)c1 | > 10 | 3.74
4 | CCn1cc/c(=N\c2cccc(CCc3ccccc3)c2)c(N)c1 | 1.67 | 2.08
5 | CCN(CC)Cc1cc(/N=c2\ccn(C)c(C)c2)ccc1O | 20.7 | 8.09
6 | CCN(CC)Cc1cc(/N=c2\ccn(C)cc2C)ccc1O | 33 | > 10
7 | Cn1cc/c(=N\c2cccc(CCc3ccccc3)c2)c(Cl)c1 | 4.75 | 2.89
8 | COc1ccc(CCc2cccc(/N=c3\ccn(C)cc3Cl)c2)cc1 | 5.24 | 5.12
9 | CCn1cc(Cl)c(=Nc2cccc(CCc3ccc(OC(F)(F)F)cc3)c2)c(Cl)c1 | 0.94 | 2.8
10 | CCN(CC)Cc1cc(N=c2ccn(C)cc2)ccc1O | 8.61 | 7.9
11 | CCn1cc/c(=N\c2cccc(CCc3ccc(OC(F)(F)F)cc3)c2)c(Cl)c1 | 1.07 | 1.7
12 | CCn1cc/c(=N\c2cccc(CCCc3ccccc3)c2)c(Cl)c1 | 2.43 | 2.25
13 | On1cc/c(=N\c2cccc(CCc3ccccc3)c2)c(Cl)c1 | > 8900 | > 8900
14 | CCn1cc/c(=N\c2cccc(CCc3ccccc3)c2)c(Cl)c1 | 3.46 | 3.53
15 | CCn1cc/c(=N\c2cccc(CCc3ccc(Cl)cc3)c2)c(Cl)c1 | 3.24 | 2.17
16 | CCn1cc/c(=N\c2cccc(CCc3ccc(OC)cc3)c2)c(Cl)c1 | 3.44 | 3.95
17 | CCn1cc/c(=N\c2ccccc2CCc2ccccc2)c(Cl)c1 | 6.77 | 3.19
18 | Cn1cc/c(=N\c2cccc(CCc3ccccc3)c2)c(N)c1 | 1.47 | 2.21
19 | CC[N+](C)(CC)Cc1cc(/N=c2\ccn(C)c(C)c2)ccc1O | > 50 | 9.86
20 | CCn1cc/c(=N\c2cccc(CCc3ccc(OC(F)(F)F)cc3)c2)c(N)c1 | 3.91 | 1.83
21 | O=C1C(O)=C([C@H]2CC[C@H](c3ccc(Cl)cc3)CC2)C(=O)c2ccccc21 [ATOVAQUONE] |  | 1.89
22 | Cc1nc(C)c(Cl)c(O)c1Cl [CLOPIDOL] | 9.73 | 3.37

— ChEMBL document CHEMBL1158442, “Design, synthesis and structure-activity relationships of (1H-pyridin-4-ylidene)amines as potential antimalarials” (Bioorg Med Chem Lett, 2009)
